Results taken from publication PMC2832311 (Journal of medicinal chemistry, 2009).
Entries after “also recorded” stand apart in the source; their conditions may differ. Read-outs that look alike come from different tables or passages of the source.

Legend:
[1] = biological target: T1, human 5-HT2C (INI) receptor (Homo sapiens, UniProt P28335); assay: Calcium flux assay, 5-HT2C; settings: for 5-HT2C agonist efficacy (in words): calcium flux; for EC50: NA: Emax ≤ 12%; for Emax: read-out: 5-HT2C Emax, percent of maximal activation by 5-HT; for Selectivity 2A/2C / Selectivity 2B/2C: EC50 ratio
T1 sequence (P28335 33-458): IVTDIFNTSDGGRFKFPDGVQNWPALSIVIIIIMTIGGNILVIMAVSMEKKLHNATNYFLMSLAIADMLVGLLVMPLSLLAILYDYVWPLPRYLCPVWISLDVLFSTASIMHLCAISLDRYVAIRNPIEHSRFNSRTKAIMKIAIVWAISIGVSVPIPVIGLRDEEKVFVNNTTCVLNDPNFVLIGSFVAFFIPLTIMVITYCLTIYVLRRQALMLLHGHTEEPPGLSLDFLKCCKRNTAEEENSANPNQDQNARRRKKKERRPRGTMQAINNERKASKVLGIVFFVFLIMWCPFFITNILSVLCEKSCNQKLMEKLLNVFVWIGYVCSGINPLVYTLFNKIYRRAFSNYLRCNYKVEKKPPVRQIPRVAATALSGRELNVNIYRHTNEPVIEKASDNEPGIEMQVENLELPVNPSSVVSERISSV

[2] = system: MAO; settings: tryptamine potentiation model; cited from earlier work
[3] = biological target: human 5-HT2A receptor (Homo sapiens, UniProt P28223); assay: Calcium flux assay, 5-HT2A; settings: for EC50: 5-HT2A EC50, HEK-293, NA: Emax ≤ 12%; for Emax: read-out: 5-HT2A Emax, percent of maximal activation by 5-HT
Sequence of human 5-HT2A receptor (P28223 whole entry): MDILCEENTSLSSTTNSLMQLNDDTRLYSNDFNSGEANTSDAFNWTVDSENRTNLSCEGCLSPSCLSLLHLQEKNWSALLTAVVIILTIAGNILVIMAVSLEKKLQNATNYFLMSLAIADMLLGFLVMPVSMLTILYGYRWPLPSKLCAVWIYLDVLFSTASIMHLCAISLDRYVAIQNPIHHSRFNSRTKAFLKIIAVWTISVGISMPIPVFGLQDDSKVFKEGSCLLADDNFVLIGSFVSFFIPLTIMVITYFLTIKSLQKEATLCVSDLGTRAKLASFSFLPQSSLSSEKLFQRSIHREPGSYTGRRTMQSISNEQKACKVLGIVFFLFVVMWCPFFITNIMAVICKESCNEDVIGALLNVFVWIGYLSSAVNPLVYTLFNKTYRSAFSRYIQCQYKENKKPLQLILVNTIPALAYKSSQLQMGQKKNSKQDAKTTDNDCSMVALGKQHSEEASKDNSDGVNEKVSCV

[4] = biological target: human 5-HT2B receptor (Homo sapiens, UniProt P41595); assay: Calcium flux assay, 5-HT2B; settings: for EC50: 5-HT2B EC50, HEK-293, NA: Emax ≤ 12%; for Emax: read-out: 5-HT2B Emax, percent of maximal activation by 5-HT
Sequence of human 5-HT2B receptor (P41595 whole entry): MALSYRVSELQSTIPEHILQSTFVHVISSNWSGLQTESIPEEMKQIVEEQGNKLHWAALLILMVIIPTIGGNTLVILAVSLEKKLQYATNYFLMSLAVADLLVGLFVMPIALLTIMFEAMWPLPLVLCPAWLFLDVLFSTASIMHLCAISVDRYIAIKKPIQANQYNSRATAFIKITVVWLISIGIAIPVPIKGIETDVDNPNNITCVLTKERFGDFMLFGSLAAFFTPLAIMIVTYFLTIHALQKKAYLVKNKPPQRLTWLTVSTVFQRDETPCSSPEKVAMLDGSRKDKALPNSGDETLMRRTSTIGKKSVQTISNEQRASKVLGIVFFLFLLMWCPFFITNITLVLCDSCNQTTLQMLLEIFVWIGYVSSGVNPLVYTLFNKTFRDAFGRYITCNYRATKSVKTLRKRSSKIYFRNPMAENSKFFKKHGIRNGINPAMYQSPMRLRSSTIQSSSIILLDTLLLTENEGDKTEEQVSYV

[5] = system: C57BL/6J male mice; assay: Mouse forced swim test; assay type: in vivo; settings: 30 min prior to testing
[6] = Table 2 section 1 (independent campaign)
[7] = Table 2 section 2 (independent campaign)
[8] = 5-HT2C EC50, HEK-293, Table 2 section 1
[9] = 5-HT2C EC50, HEK-293, Table 2 section 4
[10] = 5-HT2C EC50, HEK-293, Table 2 section 2

N[C@@H]1C[C@H]1c1ccccc1 (racemic) [compound 9, tranylcypromine, reference compound]
5-HT2C agonist efficacy (in words) [1]: full agonists

Cl.NC[C@@H]1C[C@H]1c1ccccc1 (relative stereo) [14a, trans-(2-Phenylcyclopropyl)methylamine Hydrochloride]
MAO inhibitory activity [2]: devoid of MAO inhibitory activity
5-HT2C agonist efficacy (in words) [1]: full agonists

CC(C)N[C@@H]1C[C@H]1c1ccccc1 (relative stereo) [compound 18, trans-N-Isopropyl-(2-phenylcyclopropyl)amine]
EC50 ([1]; 5-HT2C EC50, HEK-293 stably transfected, Table 1 section 2): 3420 nM
Emax ([1]; Table 1 section 2): 18%

Cl.NC[C@H]1C[C@@H]1c1ccccc1F (relative stereo) [compound 27, trans-[2-(2-Fluorophenyl)cyclopropyl]methylamine Hydrochloride]
EC50 [3, 6]: > 1000 nM
EC50 [3, 7]: 942 nM
EC50 ([3]; Table 2 section 4 (independent campaign)): 681 nM
Emax ([3]; Table 2 section 2): 79%
Emax ([3]; Table 2 section 4): 62%
EC50 ([4]; Table 2 section 1): 1550 nM
EC50 ([4]; Table 2 section 2): 199 nM
Emax ([4]; Table 2 section 2): 89%
Emax ([4]; Table 2 section 4): 84%
EC50 [1, 8]: 37 nM
EC50 [1, 9]: 33 nM
Selectivity 2A/2C ([1]; Table 2 section 1): > 27
Selectivity 2B/2C ([1]; Table 2 section 1): 42
Selectivity 2A/2C ([1]; Table 2 section 2): 32
Selectivity 2B/2C ([1]; Table 2 section 2): 6.8
Emax ([1]; Table 2 section 1): 94%

Cl.NC[C@H]1C[C@@H]1c1ccccc1Cl (relative stereo) [compound 28, trans-[2-(2-Chlorophenyl)cyclopropyl]methylamine Hydrochloride]
EC50 [3, 6]: 403 nM
Emax ([3]; Table 2 section 2): 87%
EC50 ([4]; Table 2 section 1): 84 nM
EC50 [1, 10]: 5.5 nM
Selectivity 2A/2C ([1]; Table 2 section 1): 79
Selectivity 2B/2C ([1]; Table 2 section 1): 16
Emax ([1]; Table 2 section 1): 98%

Cl.NC[C@@H]1C[C@H]1c1ccccc1Br (relative stereo) [compound 29, trans-[2-(2-Bromophenyl)cyclopropyl]methylamine Hydrochloride]
EC50 [3, 6]: 585 nM
EC50 ([4]; Table 2 section 1): 154 nM
EC50 [1, 8]: 2.8 nM
Selectivity 2A/2C ([1]; Table 2 section 1): 206
Selectivity 2B/2C ([1]; Table 2 section 1): 54
Emax ([1]; Table 2 section 1): 93%

Cl.NC[C@H]1C[C@@H]1c1cccc(F)c1 (relative stereo) [compound 34, trans-[2-(3-Fluorophenyl)cyclopropyl]methylamine Hydrochloride]
EC50 [3, 6]: 1770 nM
EC50 [3, 7]: 733 nM
Emax ([3]; Table 2 section 4): 73%
EC50 ([4]; Table 2 section 1): 51 nM
EC50 ([4]; Table 2 section 2): 13 nM
Emax ([4]; Table 2 section 1): 106%
Emax ([4]; Table 2 section 2): 96%
EC50 [1, 8]: 3.9 nM
Selectivity 2A/2C ([1]; Table 2 section 1): 450
Selectivity 2B/2C ([1]; Table 2 section 1): 13
Selectivity 2A/2C ([1]; Table 2 section 2): 225
Selectivity 2B/2C ([1]; Table 2 section 2): 4.0
Emax ([1]; Table 2 section 2): 97%
Emax ([1]; Table 2 section 4): 96%

Cc1cccc([C@H]2C[C@@H]2CN)c1.Cl (relative stereo) [compound 37, trans-[2-(3-Methylphenyl)cyclopropyl]methylamine Hydrochloride]
immobility time (in words) ([5]; 10–60 mg/kg i.p., vs vehicle): decreased immobility time; also recorded: significant decrease in immobility; also recorded: dose-dependent decrease in immobility time

Cl.NC[C@H]1C[C@@H]1c1ccc(F)cc1 (relative stereo) [compound 41, trans-[2-(4-Fluorophenyl)cyclopropyl]methylamine Hydrochloride]
EC50 [3, 6]: 1100 nM
EC50 [3, 7]: 646 nM
Emax ([3]; Table 2 section 2): 80%
Emax ([3]; Table 2 section 4): 68%
EC50 ([4]; Table 2 section 1): 312 nM
EC50 ([4]; Table 2 section 2): 57 nM
Emax ([4]; Table 2 section 1): 95%
EC50 [1, 10]: 8.4 nM
EC50 [1, 9]: 11 nM
Selectivity 2A/2C ([1]; Table 2 section 1): 202
Selectivity 2B/2C ([1]; Table 2 section 1): 57
Selectivity 2A/2C ([1]; Table 2 section 2): 77
Selectivity 2B/2C ([1]; Table 2 section 2): 6.8
Emax ([1]; Table 2 section 4): 96%

Cl.NC[C@H]1C[C@@H]1c1ccc(C(F)(F)F)cc1 (relative stereo) [compound 45, trans-[2-(4-Trifluoromethylphenyl)cyclopropyl]methylamine Hydrochloride]
Selectivity 2B/2C ([1]; Table 2 section 1): > 1

Cl.NC[C@H]1C[C@@H]1c1ccccc1 [(+)-14a, (+)-trans-(S,S)-(2-Phenylcyclopropyl)methylamine Hydrochloride]
5-HT2C agonist efficacy (in words) [1]: full agonists

Cl.NC[C@@H]1C[C@H]1c1ccccc1 [(−)-14a, (−)-trans-(R,R)-(2-Phenylcyclopropyl)methylamine Hydrochloride]
Selectivity 2A/2C ([1]; Table 1 section 2): > 10

C[C@H]1CNCCc2ccc(Cl)cc21 [compound 7, (1R)-8-chloro-2,3,4,5-tetrahydro-1-methyl-1H-3-benzazepine, reference compound]
Emax ([3]; Table 2 section 4): 33%
Emax ([1]; Table 2 section 4): 96%

CN[C@H]1CC[C@@H](c2ccc(Cl)c(Cl)c2)c2ccccc21 [compound 92, sertraline, reference compound]
immobility time (in words) ([5]; 10 mg/kg i.p., positive control, p < 0.001): significant decrease in immobility; also recorded: significantly reduced the immobility time
